The source of these data is patent US11026943B2, “Aminoquinoline derivatives and uses thereof” (UNIVERSITY OF DELHI, priority 2012, dated 2021).

Test [1] addresses T1, Nurr1 LBD (Mus musculus, UniProt Q06219). In words: Nurr1 LBD GAL4 reporter assay (pSVGAL(DBD)-N(LBD), p8xGAL-Luc) in SK-N-BE(2)C cells. The format is cell-based. The settings on record: read-out: EC50 Nurr1 LBD-based reporter activity. An excerpt:
The pTH2600LUC reporter construct contains the 2.6 kb upstream sequences of the rat tyrosine hydroxylase gene in front of a firefly luciferase gene in pGL3-basic vector. A Nurr1-expression plasmid, pSV40Nurr1, was kindly provided by Dr Orla M. Conneely at Baylor College of Medicine (Houston, Tex., USA). […] The VP16/SRC1 and VP16/SRC3 hybrid were constructed by inserting the transactivation domain of the VP16 protein upstream of SRC1 and SRC3, respectively. […] The recombinant proteins were purified by Ni-NTA column chromatography (Qiagen) according to the manufacturer's instruction. The integrity of all sequences was verified by DNA sequence analyses.
Human neuroblastoma SK-N-BE(2)C cells were maintained in Dulbecco's modified Eagle's medium (DMEM) supplemented with 10% fetal bovine serum. All culture media contained 100 units/ml penicillin and 100 μg/ml streptomycin. For transfection, cells were plated at 1.5×10^5 cells/well in the DMEM media without antibiotic into 24-well plates 1 day prior to transfection. Transfections were carried out by the Lipofectamine plus (Invitrogen) according to the manufacture's protocol. Total DNA amount was 0.5 μg per well with 0.1 μg of pRSV-β-gal as an internal control. 6 hours after transfection, compounds in the DMEM media with 1% charcoal-stripped fetal calf serum was added and incubated overnight. Cells from each well were lysed with 100 μl of lysis buffer, which contains 25 mM Tris-phosphate (pH 7.8), 2 mM DTT, 2 mM CDTA (1,2-diaminocyclohexane-N,N,N′,N′-tetraacetic acid), 10% glycerol, and 1% Triton X-100. Then equal volume of firefly luciferase substrate was added and the luciferase activity was measured using a Luminometer plate reader and normalized for beta-galactosidase activity.
In general terms: In a reporter assay the amount or activity of a reporter protein is the signal.

In test [2] the target is T1, Nurr1 LBD. In words: Fluorescence quenching assay, Nurr1-LBD. It is filed as binding. The settings on record: increasing amounts of AQ, 0.1 nM-1 μM. How it is done:
Fluorescence spectra were measured using a SHIMADZU fluorescence spectrophotometer (model RF-5310PC, SHIMADZU). The proteins (15 ng/μl) were incubated with different concentrations of AQ or kanamycin (0.1 nM, 1 nM, 10 nM, 100 nM and 1 μM in PBS buffer, pH7.0). Protein quenching was monitored at 25° C. by using 5 nm of excitation and 5 nm of emission slit-width. The excitation wavelength was 280 nm, and the emission spectra were measured between 290 and 430 nm.

The target in test [3] is T1, Nurr1 LBD. In words: Filter binding assay with [3H]-CQ (saturation and competition). The settings on record: 500 nM [3H]-CQ. The text has this: The basal level of transcriptional activity was normalized to 1. The bars represent means±SEM from three independent experiments. (FIG. 13C) Effect of Nurr1 specific siRNA on Nurr1 LBD's transactivation activity. […] (FIG. 13D) Human neuroblastoma SK-N-BE(2)C cells were transfected with the N-terminal flag-tagged SRC1 or SRC3 and the C-terminal myc-tagged full-length Nurr1. […] Cell lysates were immunoprecipitated (IP) using anti-flag antibodies and analyzed by immunoblotting (IB) using anti-myc antibodies. […] The fold induction was derived by comparing each luciferase activity to basal level obtained by non-SRC transfection. […] The concentrations (04) are shown next to the arrows. […] Specific binding was calculated as the difference of total and non-specific binding. The insert indicates Scatchard analysis of the specific binding. […] The data represent the average of triplicate from three independent experiments. All graphs, Kd, Ki, and Bmax values were generated using the non-linear regression program Prism version 5.02.
GF/C filters were wet with in binding buffer and placed on a 48-place filter manifold. […] Filters were washed with 4×100 ml binding buffer, dried, and mixed with 5 ml Scintiverse BD (Fisher) and radioactivity was determined in a Beckman LS6000SC liquid scintillation counter. […] The mixture was applied to GF/C filter and filter was washed and counted as described above.

Test [4] deals with murine microglial BV-2 cells. It is filed as cell-based, mouse. The settings on record: 10 ng/ml LPS for 4 hrs, AQ 10 and 15 μM. How it is done: To prepare primary cultures of DA neurons, the ventral mesencephalon was removed from 14 day gestation Sprague Dawley rat embryo (Charles River, Cambridge, Mass.). Tissues were incubated with 0.01% trypsin in MEM (MEM, Invitrogen) for 10 min at 37° C. and triturated using a constricted Pasteur pipette. DA neurons were plated at 1.0×10^5 cells per 9 mm diameter glass cover slip precoated with 100 μg/ml poly-D-lysine (Sigma, St. Louis, Mo.) and 4 μg/ml laminin (Invitrogen). DA neurons were maintained at 37° C. in a humidified 5% CO2 atmosphere in minimum essential medium supplemented with 10% FBS (Hyclone), 2 mM glutamine and 6.0 g/l glucose. At 5 or 6 days in vitro, DA neurons were washed with MEM and treated with various experimental reagents for the time periods indicated. Reagents used were 6-OHDA (Sigma), N-acetyl-cysteine, N-benzyloxycarbonyl-Val-Ala-Asp-fluoromethylketone (Z-VAD-fink; Enzyme Systems Products, Livermore, Calif.). BV-2 cells, a microglial-like mouse cell line, were thawed and passaged until logarithmic growth was achieved. Cell cultures were maintained in 6-well culture plate (Corning Costar, Corning, N.Y.) at a concentration of 1.0×10^5 cells per well, in the growth medium consisting of DMEM (Sigma, St. Louis, Mo.), supplemented with 10% fetal bovine serum (FBS; Hyclone) heat inactivated at 56° C. for 30 min, 2 mM L-glutamine(Sigma) and 1× Pen-Strep (Invitrogen). […]

SMILES strings stand for the structures. pEC50, pKi: −log10 of the molar value.

T1 sequence (Q06219 328-598): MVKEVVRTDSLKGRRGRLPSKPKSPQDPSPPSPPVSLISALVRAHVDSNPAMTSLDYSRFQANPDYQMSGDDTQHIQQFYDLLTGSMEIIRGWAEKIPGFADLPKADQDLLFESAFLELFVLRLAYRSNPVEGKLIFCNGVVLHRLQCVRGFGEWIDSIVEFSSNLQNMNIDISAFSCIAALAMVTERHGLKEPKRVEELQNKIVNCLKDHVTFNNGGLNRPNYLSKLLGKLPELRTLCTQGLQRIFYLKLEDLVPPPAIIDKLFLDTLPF

For the compound `CCN(CC)Cc1cc(Nc2ccnc3cc(Cl)ccc23)ccc1O` [AQ, amodiaquine], the pEC50 (usually −log10 of the EC50, conventionally taken in molar units) on Nurr1 LBD [1] was around 4.70. In addition, on Nurr1 LBD [2], the “fluorescence quenching of Nurr1-LBD” value is reported as “fluorescence intensity gradually decreased”. The pKi (in general, the negative decadic logarithm of the Ki, by convention in mol/L) on Nurr1 LBD [3] was 6.61. In test [4], the “LPS-induced expression of pro-inflammatory cytokines” value is “suppresses”.
